{
  "source": "patent US20260027101A1",
  "about": "“BACTERIAL TOPOISOMERASE INHIBITORS” (priority 2022, published 2026)",
  "assay_type_in_all_cases": "cell-based",
  "key": {"[1]": {"system": "Staphylococcus aureus M121K (29213-derived strain, GyrA substitution)", "assay": "microbe, parasite or virus in culture", "conditions": "read-out: MIC against Staphylococcus aureus M121K", "procedure": "(§1) Minimum inhibitory concentrations (MICs) were determined in triplicate according to Clinical and Laboratory Standards Institute (CLSI) guidelines using one or more strains of S. aureus or selected Gram-negative bacteria. […] Compounds were also assayed using a USA300 (Hidron, A. I., et al., Emergence of Community-Acquired Meticillin-Resistant Staphylococcus aureus Strain USA300 as a Cause of Necrotising Community-Onset Pneumonia. Lancet Infect. Dis. 2009, 9. 384-392) isolate of MRSA as well as a S. aureus strain isolated from a cystic fibrosis patient."}, "[2]": {"system": "Salmonella enterica 14028 ΔtolC (efflux-deficient strain)", "assay": "microbe, parasite or virus in culture", "conditions": "Salmonella enterica, read-out: MIC against Salmonella enterica 14028 ΔtolC", "procedure": "as §1"}, "[3]": {"system": "Staphylococcus aureus D83N (29213-derived strain, GyrA substitution)", "assay": "microbe, parasite or virus in culture", "conditions": "read-out: MIC against Staphylococcus aureus D83N", "procedure": "as §1"}, "[4]": {"system": "Acinetobacter baumanii ATCC 19606", "assay": "MIC, Acinetobacter baumanii ATCC 19606", "conditions": "Acinetobacter baumannii", "procedure": "as §1"}, "[5]": {"system": "Staphylococcus aureus USA300 (MRSA isolate)", "assay": "MIC, S. aureus USA300 MRSA isolate (CLSI)", "conditions": "read-out: MIC against Staphylococcus aureus USA300", "procedure": "as §1"}, "[6]": {"system": "Pseudomonas aeruginosa ATCC 27853", "assay": "MIC, Pseudomonas aeruginosa ATCC 27853", "procedure": "as §1"}, "[7]": {"system": "Staphylococcus aureus CF isolate", "assay": "MIC, S. aureus cystic fibrosis isolate (CLSI)", "conditions": "read-out: MIC against Staphylococcus aureus CF isolate", "procedure": "as §1"}, "[8]": {"system": "Salmonella enterica ATCC 14028", "assay": "MIC, Salmonella enterica ATCC 14028", "procedure": "as §1"}, "[9]": {"system": "Staphylococcus aureus ATCC 29213", "assay": "MIC, S. aureus ATCC 29213 (CLSI)", "procedure": "as §1"}, "[10]": {"system": "Escherichia coli ATCC 25922", "assay": "MIC, Escherichia coli ATCC 25922", "procedure": "as §1"}, "[11]": {"conditions": "ATCC19606, read-out: MIC against Acinetobacter baumanii ATCC 19606"}, "[12]": {"conditions": "ATCC27853, read-out: MIC against Pseudomonas aeruginosa ATCC 27853"}, "[13]": {"conditions": "ATCC14028, read-out: MIC against Salmonella enterica ATCC 14028"}, "[14]": {"conditions": "ATCC29213, read-out: MIC against Staphylococcus aureus ATCC 29213"}, "[15]": {"conditions": "ATCC25922, read-out: MIC against Escherichia coli ATCC 25922"}, "[16]": {"conditions": "ATCC19606, strain ATCC 19606, read-out: MIC against Acinetobacter baumanii ATCC 19606"}, "[17]": {"conditions": "USA300 MRSA isolate, ciprofloxacin-resistant"}, "[18]": {"conditions": "ATCC27853, strain ATCC 27853, read-out: MIC against Pseudomonas aeruginosa ATCC 27853"}, "[19]": {"conditions": "ATCC14028, strain ATCC 14028, read-out: MIC against Salmonella enterica ATCC 14028"}, "[20]": {"conditions": "ATCC29213, strain ATCC 29213, triplicate, CLSI, read-out: MIC against Staphylococcus aureus ATCC 29213"}, "[21]": {"conditions": "ATCC25922, strain ATCC 25922, read-out: MIC against Escherichia coli ATCC 25922"}},
  "note": "Like-named read-outs stand apart in the source and are kept apart here.",
  "data": [
    {"smiles": "COc1ccc2ncc(F)c(CCN3CCC(/C=C\\c4ccc5c(c4)OCCO5)CC3)c2n1", "note": "[Example 11, (Z)-8-(2-(4-(2-(2,3-dihydrobenzo[b][1,4]dioxin-6-yl)vinyl)piperidin-1-yl)ethyl)-7-fluoro-2-methoxy-1,5-naphthyridine]", "values": [
      {"measurement": "MIC", "setting": "[1]", "value": "> 16", "unit": "µg/mL"},
      {"measurement": "MIC", "setting": "[2]", "value": 4, "unit": "µg/mL"},
      {"measurement": "MIC", "setting": "[3]", "value": "> 16", "unit": "µg/mL"},
      {"measurement": "MIC", "setting": "[4]; [11]", "value": 64, "unit": "µg/mL"},
      {"measurement": "MIC", "setting": "[5]", "value": 8, "unit": "µg/mL"},
      {"measurement": "MIC", "setting": "[6]; [12]", "value": 64, "unit": "µg/mL"},
      {"measurement": "MIC", "setting": "[7]", "value": 9, "unit": "µg/mL"},
      {"measurement": "MIC", "setting": "[8]; [13]", "value": "> 64", "unit": "µg/mL"},
      {"measurement": "MIC", "setting": "[9]; [14]", "value": 8, "unit": "µg/mL"},
      {"measurement": "MIC", "setting": "[10]; [15]", "value": "> 64", "unit": "µg/mL"}
    ]},
    {"smiles": "COc1ccc2ncc(F)c(CCN3CCC(C(=O)Cc4ccc(C)cc4)CC3)c2n1", "note": "[Example 22, 1-(1-(2-(3-fluoro-6-methoxy-1,5-naphthyridin-4-yl)ethyl)piperidin-4-yl)-2-(p-tolyl)ethan-1-one]", "values": [
      {"measurement": "MIC", "setting": "[1]", "value": 8, "unit": "µg/mL"},
      {"measurement": "MIC", "setting": "[2]", "value": 0.5, "unit": "µg/mL"},
      {"measurement": "MIC", "setting": "[3]", "value": 4, "unit": "µg/mL"},
      {"measurement": "MIC", "setting": "[4]; [11]", "value": 32, "unit": "µg/mL"},
      {"measurement": "MIC", "setting": "[5]", "value": "0.125 to 0.5", "unit": "µg/mL"},
      {"measurement": "MIC", "setting": "[6]; [12]", "value": "> 64", "unit": "µg/mL"},
      {"measurement": "MIC", "setting": "[7]", "value": "0.125 to 0.5", "unit": "µg/mL"},
      {"measurement": "MIC", "setting": "[8]; [13]", "value": 64, "unit": "µg/mL"},
      {"measurement": "MIC", "setting": "[9]; [14]", "value": 0.125, "unit": "µg/mL"},
      {"measurement": "MIC", "setting": "[10]; [15]", "value": 16, "unit": "µg/mL"}
    ]},
    {"smiles": "COc1ccc2ncc(F)c(CCN3CCC([C@@H]4OC(=O)O[C@H]4c4ccc(C)cc4)CC3)c2n1", "note": "[Example 31, (4S,5S)-4-(1-(2-(3-fluoro-6-methoxy-1,5-naphthyridin-4-yl)ethyl)piperidin-4-yl)-5-(p-tolyl)-1,3-dioxolan-2-one]", "values": [
      {"measurement": "MIC", "setting": "[1]", "value": "> 32", "unit": "µg/mL"},
      {"measurement": "MIC", "setting": "[2]", "value": 8, "unit": "µg/mL"},
      {"measurement": "MIC", "setting": "[3]", "value": "> 32", "unit": "µg/mL"},
      {"measurement": "MIC", "setting": "[4]; [16]", "value": 64, "unit": "µg/mL"},
      {"measurement": "MIC", "setting": "[5]; [17]", "value": 2, "unit": "µg/mL"},
      {"measurement": "MIC", "setting": "[6]; [18]", "value": "> 64", "unit": "µg/mL"},
      {"measurement": "MIC", "setting": "[7]; isolate from individual with cystic fibrosis", "value": 4, "unit": "µg/mL"},
      {"measurement": "MIC", "setting": "[8]; [19]", "value": "> 64", "unit": "µg/mL"},
      {"measurement": "MIC", "setting": "[9]; [20]", "value": 2, "unit": "µg/mL"},
      {"measurement": "MIC", "setting": "[10]; [21]", "value": "> 64", "unit": "µg/mL"}
    ]},
    {"smiles": "O=c1ccc2ncc(=O)n3c2n1C[C@H]3CN1CCC(NCc2cc3c(cn2)OCCC3)CC1", "note": "[gepotidacin, reference compound]", "values": [
      {"measurement": "MIC", "setting": "[1]", "value": "8 to 32", "unit": "µg/mL"},
      {"measurement": "MIC", "setting": "[2]", "value": "0.125 to 0.5", "unit": "µg/mL"},
      {"measurement": "MIC", "setting": "[3]", "value": "4 to 32", "unit": "µg/mL"},
      {"measurement": "MIC", "setting": "[4]; [16]", "value": "32 to 64", "unit": "µg/mL"},
      {"measurement": "MIC", "setting": "[5]; [17]", "value": "0.125 to 1", "unit": "µg/mL"},
      {"measurement": "MIC", "setting": "[6]; [18]", "value": "2 to 16", "unit": "µg/mL"},
      {"measurement": "MIC", "setting": "[7]", "value": "0.125 to 0.5", "unit": "µg/mL"},
      {"measurement": "MIC", "setting": "[8]; [19]", "value": "2 to 8", "unit": "µg/mL"},
      {"measurement": "MIC", "setting": "[9]; [20]", "value": "0.25 to 1", "unit": "µg/mL"},
      {"measurement": "MIC", "setting": "[10]; [21]", "value": "0.5 to 2", "unit": "µg/mL"}
    ]}
  ]
}
